Measured values: patent US20260209206A1, “STAT6 DEGRADERS AND USES THEREOF” (Kymera Therapeutics, Inc., priority 2023, published 2026)

Tests used:
[1] = target: T1, biotinylated truncated STAT6 (123-632)-avi (Homo sapiens, UniProt P42226); assay: STAT6 HTRF binding assay; conditions: 0.15 nM STAT6 (123-632)-avi, 20 nM fluorescein-labeled probe, 30 minutes at room temperature
T1 construct: 0.15 nM biotinylated truncated STAT6 (123-632)-avi purified from E. coli; made in house; host or cells: E. coli
T1 sequence (P42226 123-632 limits assumed): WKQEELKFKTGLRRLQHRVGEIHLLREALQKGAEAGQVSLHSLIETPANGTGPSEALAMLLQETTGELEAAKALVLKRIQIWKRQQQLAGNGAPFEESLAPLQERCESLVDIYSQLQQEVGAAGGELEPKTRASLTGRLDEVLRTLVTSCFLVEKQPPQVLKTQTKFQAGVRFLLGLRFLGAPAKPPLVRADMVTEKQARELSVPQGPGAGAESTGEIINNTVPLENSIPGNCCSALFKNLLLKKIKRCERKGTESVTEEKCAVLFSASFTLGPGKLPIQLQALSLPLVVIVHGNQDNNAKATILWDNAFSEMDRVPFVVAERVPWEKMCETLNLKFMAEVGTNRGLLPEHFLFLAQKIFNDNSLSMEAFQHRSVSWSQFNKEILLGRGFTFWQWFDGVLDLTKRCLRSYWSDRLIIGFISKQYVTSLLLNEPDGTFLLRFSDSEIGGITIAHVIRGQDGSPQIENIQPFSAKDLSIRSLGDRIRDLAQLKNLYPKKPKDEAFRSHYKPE
Procedure: HTRF binding assays were perforned using 0.15 nM biotinylated truncated STAT6 (123-632)-avi purified from E. coli, 1× Streptavidin-terbium (CisBio) prepared by mixing SA-Tb in PPI detection buffer (CisBio), 20 nM proprietary fluorescein-labeled probe, and test compounds in assay buffer consisting of 50 mM HEPES-Na pH 7.5, 100 mM NaCl, 1 mM EDTA, 2 mM DTT, 0.1% Tween-20 with a final volume of 20 uL. Compound stocks were dissolved at 10 mM in 100% DMSO and 11 point titration with 3 fold serial dilution was performed in white, opaque 384 well microplates. Reaction plates were incubated at room temperature for 30 minutes. Plates were centrifuged at low rpm for 5 mins, and the ratio of fluorescence intensities were measured at emission wavelengths for fluorescein acceptor (520 nm) and terbium donor (495 nm) on Envision Plate reader. % Inhibition was calculated from the 520/495 ratio generated by using proprietary positive control compound for 100% inhibition and DMSO only reactions for 0% inhibition. Data was processed and dose response curves were generated using GraphPad Prism to determine the concentration required for inhibiting 50% of the HTRF signal (IC50).
The letter codes for IC50 (μM) include: A (<0.1 μM); B (0.1-1 μM); C (>1-10 μM); D (>10-100 μM); E (>100 μM); and F (not tested).

STAT6 [2] = target: T2, STAT6 (Homo sapiens, UniProt P42226); assay: STAT6 HiBiT degradation in A549 (STAT6-HiBiT) cells; assay type: cell-based; conditions: 24 h
T2 construct: endogenous in cells; host or cells: A549 (STAT6-HiBiT), endogenous locus tagged
T2 sequence (P42226 1-847): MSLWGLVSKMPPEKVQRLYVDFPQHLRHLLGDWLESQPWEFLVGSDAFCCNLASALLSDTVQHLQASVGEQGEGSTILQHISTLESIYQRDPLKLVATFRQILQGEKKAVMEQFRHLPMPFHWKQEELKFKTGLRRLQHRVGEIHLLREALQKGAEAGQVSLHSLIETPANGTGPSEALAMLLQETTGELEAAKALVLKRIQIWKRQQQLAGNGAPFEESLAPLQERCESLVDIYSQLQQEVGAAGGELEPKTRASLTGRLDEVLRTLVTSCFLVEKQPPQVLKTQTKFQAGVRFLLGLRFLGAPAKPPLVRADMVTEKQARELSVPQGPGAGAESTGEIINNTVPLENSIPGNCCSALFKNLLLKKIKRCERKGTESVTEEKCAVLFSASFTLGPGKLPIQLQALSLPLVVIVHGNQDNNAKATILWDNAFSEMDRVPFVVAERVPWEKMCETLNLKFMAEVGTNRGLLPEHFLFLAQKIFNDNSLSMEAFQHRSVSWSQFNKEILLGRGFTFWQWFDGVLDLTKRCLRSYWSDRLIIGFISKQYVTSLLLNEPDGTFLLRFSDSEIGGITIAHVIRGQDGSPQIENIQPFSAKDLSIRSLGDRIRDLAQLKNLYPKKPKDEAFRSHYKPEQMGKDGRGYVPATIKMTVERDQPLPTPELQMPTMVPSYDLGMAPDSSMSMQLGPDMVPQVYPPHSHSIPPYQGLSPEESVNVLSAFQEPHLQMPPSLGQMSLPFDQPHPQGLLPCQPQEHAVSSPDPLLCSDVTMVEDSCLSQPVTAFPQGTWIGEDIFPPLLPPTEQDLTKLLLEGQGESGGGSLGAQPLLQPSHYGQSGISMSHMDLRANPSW
Procedure: Degradation of STAT6 in endogenously tagged STAT6-HiBiT A549 cells was quantitatively measured using the Nano-Glo HiBiT Lytic Detection System (Promega, 3040). A549 (STAT6-HiBiT) cells were seeded in 384-well plates with a density of 1.25k cells per well in 20 μl fresh media. Compounds were then added to the assay plates using the Apricot S3 with a final top concentration of up to 10 uM in a 4-fold dilution series with total of 10 doses. The assay plates were then incubated for 24 hours at 37° C. under 5% CO2. At the assay endpoint, 20 μL of Nano-Glo HiBiT Lytic Reagent was added to each well and agitated on a plate shaker at 300 rpm for 10 minutes at room temperature. Luminescence was read on PHERAStar FSX Instrument (Is integration time). The data was analyzed by GraphPad Prism and the dose dependent STAT6 degradation was fit using the four-parameter inhibitor vs. response nonlinear regression.
The letter codes for DC50 (nM) include: A (<1 nM): B (1-10 nM); C (>10-100 nM); D (>100-1000 nM); E (>1000 nM); and F (not tested). The letter codes for Dmax (%) include: A (>90%); B (>70-90%); C (>50-70%); D (<50%): and E (not tested).

STAT6 [3] = target: T2, STAT6; assay: STAT6 MSD degradation in A549 cells; assay type: cell-based; conditions: 24 h
Procedure: Degradation of STAT6 in cells was quantitatively measured using Meso Scale Discovery (MSD) technology. A549 cells were seeded in 96-well plates with a density of 1.5×10e4 to 5×10e5 cells per well in 100 μl fresh media. Compounds were then added to the assay plates with a final top concentration of up to 10 uM in a 1:3 dilution series with total of 9 doses. The assay plates were then incubated for 4 to 24 hours at 37° C. under 5% CO2. The assay plates were then centrifuged for 5 minutes and the cell pellets were treated with 100 μl/well RIPA lysis buffer (Boston Bioproducts, BP-115D) with protease and phosphatase inhibitors (Roche, 05892791001 and 04906837001). To prepare the MSD assay plates (MSD, L15XA), the plates were coated with the capture antibody (Abnova, H00006778) in PBS, at 40 μl/well. The plates were then incubated overnight at 4° C., washed 1 time with […] TBST buffer (Cell Signaling Technology, #9997S) and blocked with 150 μl/well blocking buffer (MSD, R93BA-4). Cell lysates were then added to MSD assay plates and the plates were incubated at room temperature for 1 hour. The plates were then washed 3 times with 150 μl/well TBST buffer and 25 μl/well primary detection antibody (Cell Signaling Technology, #5397S). The assay plates were then incubated at room temperature for 1 hour, washed 3 times with 150 μl/well TBST buffer, and 25 μl/well secondary detection antibody, SULFO-TAG anti-rabbit antibody (MSD, R32AB-1) were added. The assay plates were then incubated at room temperature for 1 hour, washed 3 times with 150 μl/well TBST buffer, and 150 μl/well MSD reading buffer (MSD, R92TC-2) were added. The plates were then analyzed by an MSD reader. The data was analyzed by GraphPad Prism and the dose dependent STAT6 degradation was fit using the four-parameter inhibitor vs. response nonlinear regression.
The letter codes for DC50 (nM) include: A (<1 nM); B (1-10 nM); C (>10-100 nM); D (>100-1000 nM); E (>1000 nM); and F (not tested). The letter codes for Dmax (%) include: A (>90%); B (>70-90%); C (>50-70%); D (<50%); and E (not tested).

Structure (SMILES) | IC50 [1] [nM] | DC50 (STAT6 [2]) [nM] | Dmax (STAT6 [2]) [%] | DC50 (STAT6 [3]) [nM] | Dmax (STAT6 [3]) [%]
COc1cc(N2CCN(CCc3cccc4c3n(C)c(=O)n4C3CCC(=O)NC3=O)CC2)ccc1-c1cc(C2=CCCN(C(=O)CCn3ccnn3)C2)cc2ccncc12 (stereo not drawn) [I-1401] | 10000 to 100000 | – | – | – | –
COc1cc(N2CCN(CCc3cccc4c3n(C)c(=O)n4C3CCC(=O)NC3=O)CC2)ccc1-c1cc(C2=CCCN(C(=O)CCn3ccnn3)C2)cc2cc(C(=O)N(C)C)cnc12 (stereo not drawn) [I-1338] | 10000 to 100000 | > 1000 | < 50 | – | –
COc1cc(N2CCN(CCc3cccc4c3n(C)c(=O)n4C3CCC(=O)NC3=O)CC2)ccc1-c1cc(Nc2ccccn2)c(F)c(C2=CCCN(C(=O)CCn3ccnn3)C2)c1 (stereo not drawn) [I-1272] | 100 to 1000 | < 1 | > 90 | – | –
CN(C)C(=O)c1cc2ccc(C3=CCCN(C(=O)C4Cc5c(cccc5OCCOCCOCCOCCOCCc5ccc6c(c5)n(C)c(=O)n6C5CCC(=O)NC5=O)CN4C=O)C3)cc2[nH]1 (stereo not drawn) [I-105] | – | – | – | > 1000 | < 50
COc1cc(N2CCN(CCc3cccc4c3n(C)c(=O)n4C3CCC(=O)NC3=O)CC2)ccc1-c1cc(-c2cccc(C(=O)N(C)C)c2)c(F)c2[nH]c(C(=O)N(C)C)cc12 (stereo not drawn) [I-1302] | 1000 to 10000 | 1 to 10 | 70 to 90 | – | –
CN(C)C(=O)c1cc2ccc(C3=CCCN(C(=O)C4Cc5c(cccc5OCCOCCOCCOCCOCCc5cccc6c5n(C)c(=O)n6C5CCC(=O)NC5=O)CN4C=O)C3)cc2[nH]1 (stereo not drawn) [I-61] | – | – | – | > 1000 | < 50
COc1cc(N2CCN(CCc3cccc4c3n(C)c(=O)n4C3CCC(=O)NC3=O)CC2)ccc1-c1cc(C2=CCCN(C(=O)CCn3ccnn3)C2)ccc1C(=O)N(C)C (stereo not drawn) [I-1282] | 10000 to 100000 | > 1000 | < 50 | – | –
COc1cc(N2CCN(CCc3cccc4c3n(C)c(=O)n4C3CCC(=O)NC3=O)CC2)ccc1-c1cc(C2=CCCN(C(=O)CCn3ccnn3)C2)cc2c1CN(C(=O)N(C)C)C2 (stereo not drawn) [I-1334] | 1000 to 10000 | 10 to 100 | 70 to 90 | – | –
COc1cc(N2CCN(CCc3cccc4c3n(C)c(=O)n4C3CCC(=O)NC3=O)CC2)ccc1-c1cc(C2=CCCN(C(=O)CCn3ccnn3)C2)c(F)c2ccncc12 (stereo not drawn) [I-1271] | 1000 to 10000 | > 1000 | < 50 | – | –
COc1cc(N2CCN(CCc3cccc4c3n(C)c(=O)n4C3CCC(=O)NC3=O)CC2)ccc1-c1cc(C2=CCCN(C(=O)CCn3ccnn3)C2)c(F)c2cnccc12 (stereo not drawn) [I-1270] | 1000 to 10000 | > 1000 | < 50 | – | –
COc1cc(N2CCN(CCc3cccc4c3n(C)c(=O)n4C3CCC(=O)NC3=O)CC2)ccc1-c1cc(C2=CCCN(C(=O)CCn3ccnn3)C2)cnc1CNC(=O)N(C)C (stereo not drawn) [I-1336] | 1000 to 10000 | > 1000 | < 50 | – | –
COc1cc(N2CCN(CCc3cccc4c3n(C)c(=O)n4C3CCC(=O)NC3=O)CC2)ccc1-c1cc(C2=CCCN(C(=O)CCn3ccnn3)C2)cc2ccc(C(=O)N(C)C)cc12 (stereo not drawn) [I-1293] | < 100 | < 1 | > 90 | – | –
COc1cc(N2CCN(CCc3cccc4c3n(C)c(=O)n4C3CCC(=O)NC3=O)CC2)ccc1-c1cc(C2=CCCN(C(=O)CCn3ccnn3)C2)ccc1-n1ccccc1=O (stereo not drawn) [I-1309] | – | > 1000 | < 50 | – | –
COc1cc(N2CCN(CCc3cccc4c3n(C)c(=O)n4C3CCC(=O)NC3=O)CC2)ccc1-c1cc(NC(=O)CCn2ccnn2)ccc1-c1ncc(C(=O)N(C)C)[nH]1 (stereo not drawn) [I-1324] | 10000 to 100000 | > 1000 | < 50 | – | –
COc1cc(N2CCN(CCc3cccc4c3n(C)c(=O)n4C3CCC(=O)NC3=O)CC2)ccc1-c1cc(C(=O)N(C)C)ccc1C1=CCCN(C(=O)CCn2ccnn2)C1 (stereo not drawn) [I-1323] | 100 to 1000 | 100 to 1000 | 70 to 90 | – | –
COc1cc(N2CCN(CCc3cccc4c3n(C)c(=O)n4C3CCC(=O)NC3=O)CC2)ccc1-c1cc(C2CCCCN(C(=O)CCn3ccnn3)C2)c(F)c2[nH]c(C(=O)N(C)C)cc12 (stereo not drawn) [I-1292] | – | < 1 | > 90 | – | –
CN(C)C(=O)c1cc2ccc(C3=CCCN(C(=O)C4Cc5c(cccc5OCCOCCOCCOCCc5cccc6c5n(C)c(=O)n6C5CCC(=O)NC5=O)CN4C=O)C3)cc2[nH]1 (stereo not drawn) [I-98] | 10000 to 100000 | – | – | > 1000 | < 50
